From publication PMC9781104 (Pharmaceutics, 2022)
Where two headings read alike, the source gives them in different places. One block for each compound: values may come before it.

Experiments:
CYP2D6 [1] = assay: PBPK model: CYP2D6-mediated metabolism (Km, kcat, contribution); design: species or system human; conditions: Assumed equal to Km of CYP2D6-mediated hydroxylation of (E)-4-OH-Clom, adapted with fu,inc=0.243; read-out: CYP2D6 Km → undef., assumed
Excerpt: An additional biotransformation process via CYP2B6 to (E)-4-OH-Clom was implemented to cover the fraction of CYP2D6-independent metabolism observed in the PM population and in CYP2D6 DD(G)I scenarios.
(E)-4-OH-Clom is metabolized via CYP2D6 to (Z)-3,4-dihydroxyclomiphene (implemented as an undefined metabolite), via an unspecific hepatic clearance mechanism and via CYP3A4 to the second active metabolite (E)-4-OH-DE-Clom. (E)-4-OH-DE-Clom is also formed via CYP2D6 metabolism of (E)-DE-Clom, which in turn, represents the main route of elimination of (E)-DE-Clom. Furthermore, (E)-DE-Clom is metabolized to minor extents through CYP2D6 and CYP3A4 to (E)-N,N-didesethylclomiphene (implemented as an undefined metabolite). The metabolism of (E)-4-OH-DE-Clom has not been extensively investigated, yet. According to work by Kröner, (E)-4-OH-DE-Clom is presumably metabolized through a CYP-mediated pathway to (Z)-3,4-dihydroxydesethyl-clomiphene. […]
This was integrated by accounting for the 80:20 metabolic ratio of CYP3A4 to CYP2D6 reported by Mazzarino and coworkers. […] As previously described, the ratio of the corresponding measured in vitro metabolic enzyme activities was used dur-ing the parameter estimation step for optimization of kcat values (kcat, CYP3A4 = 0.13 * kcat, CYP2D6)

CYP2D6 [2] = assay: In vitro scaling factors from CYP2D6 activity score-specific in vitro metabolite formation rates; type: in vitro ADME, human
Excerpt: Here, kcat, AS=i represents the catalytic rate constant for CYP2D6 AS = i, kcat, AS=2 is the catalytic rate constant for the NM population and IVSFi is the corresponding in vitro scaling factor (IVSF).
S2. Drug-Gene-Interaction (DGI) Modeling
S2.1. CYP2D6 in vitro Scaling Factors
The estimated CYP2D6 kcat values for the NM population were extrapolated to the intermediate metabolizers (IM) (AS=0.5, AS=0.75 and AS=1) and ultrarapid metabolizers (UM) populations according to Equation 1 in the main manuscript, using in vitro scaling factors (IVSFs). Determination of IVSFs were based on AS-specific in vitro metabolite formation rates relative to the corresponding formation rate in NM as a reference. The respective IVSFs for each CYP2D6-dependent pathway are depicted in Table S8. Measured in vitro data for (E)-4-OH-Clom and (E)-4-OH-DE-Clom AS-specific formation rates were available, while mean values were assumed for the remaining CYP2D6-dependent metabolic pathways.
Table S8. Employed in vitro scaling factors (IVSFs) for individual CYP2D6 activity scores. […]

[3] = Pharmacokinetic panel study in CYP2D6-genotyped healthy female volunteers (observed plasma AUClast/Cmax, DGI and DD(G)I with clarithromycin or paroxetine); type: in vivo, human; conditions: for order of AUClast across CYP2D6 phenotypes: DGI setting
Experimental: Clinical data from a recently performed pharmacokinetic panel study (EudraCT-Nr.: 2009-014531-20, ClinicalTrails.gov: NCT01289756) were used for PBPK model development. The study protocol, patient information sheet and consent form were approved by the Ethics Committee of the University of Tübingen and the German Federal Institute for Drugs and Medical Devices (BfArM). All study participants had signed an informed consent form.
The study was conducted in 20 healthy, Caucasian, premenopausal female volunteers that were genotyped for CYP2D6 polymorphisms and subsequently assigned to predicted phenotypes according to the respective CYP2D6 activity score (AS) as depicted in Table 1 [17, 18]. […] After a wash-out phase of at least three weeks, clomiphene was administered concomitantly with the strong CYP3A4 inhibitor clarithromycin [19]. Here, the participants received 500 mg clarithromycin twice daily for four days. On day 5, a single dose of clomiphene citrate was administered together with 500 mg clarithromycin. Finally, in the third period, all subjects received clomiphene citrate together with the strong CYP2D6 inhibitor paroxetine. Here, 40 mg paroxetine was administered once daily for two days. On day 3, participants received a single dose of clomiphene citrate concomitantly with 40 mg paroxetine (Figure 1).
For the evaluation of DGI and DD(G)I effects, the predicted AUClast and Cmax effect ratios were calculated according to Equations (4) and (5) and compared with the corresponding observed values. Here, model performance was assessed using the prediction acceptance limits proposed by Guest et al. with 1.25-fold variability. (4) AUClast, AS=i ratio=AUClast, effect, AS=i/AUClast, control (5) Cmax, AS=i ratio=Cmax, effect, AS=i/Cmax, control
For the calculation of DGI ratios, AUClast, effect, AS=i and Cmax, effect, AS=i represent the AUClast and Cmax for CYP2D6 AS = i, while AUClast, control and Cmax, control are the AUClast and Cmax values for the NM (AS = 2) population. For the calculation of DD(G)I ratios, AUClast, effect, AS=i and Cmax, effect, AS=i represent the AUClast and Cmax for the CYP2D6 AS = i in the DD(G)I scenario with clarithromycin or paroxetine, while AUClast, control and Cmax, control are the AUClast and Cmax values for the CYP2D6 AS = i without the concomitant use of perpetrator drugs.

estrogen receptor = conditions: read-out: half-maximal inhibitory concentration towards the estrogen receptor; cited from earlier work
[4] = design: method as in PMID 22108178; conditions: healthy female volunteers; cited from earlier work
[5] = cited from earlier work; for pKa (base), literature: ref [23], [30]
CYP2D6 [6] = assay: Fraction metabolized via CYP2D6 calculated from observed AUClast (PM vs NM, Equation S1); type: in vivo, human; conditions: calculated from observed relative AUClast increase PM vs NM
Excerpt: Calculation of Fractions Metabolized
(§1) (normal metabolizers (NM)) [39]. […] In addition, data from
(§2) the CYP2D6 NM population in the clarithromycin DDI scenario (CYP3A4 inhibition) was used to
(§3) For this, the observed relative AUClast increase in the NM population between
(§4) the DDI scenario with CYP3A4 inhibition and the control scenario without inhibition was used,
(§5) 1 −fm = AUClast,effect,AS=iAUClast,control (S1)

CYP2D6 [7] = conditions: cited from earlier work; for Km: literature value adapted with fu,inc
[8] = Bioavailability calculated from literature AUC0-24h after oral and intravenous clomiphene citrate; type: in vivo, human; conditions: 50 mg clomiphene citrate; intravenous study n = 2
Excerpt: Both isomers show highly distinct pharmacokinetic characteristics and also differ in affinity to the target receptor [22, 28]. […] While the calculated value from the literature is based on an intravenous study with a small number of study participants (n = 2), a low bioavailability can be supported with the developed PBPK model.

CYP2B6 = system: CYP2B6; design: method as in ref [17, 18] of supplement; conditions: literature value adapted with fu,inc; ref [17, 18] of supplement; read-out: CYP2B6 Km → (E)-4-OH-Clom; cited from earlier work
CYP3A4 [9] = system: CYP3A4; design: method as in ref [17, 18] of supplement; conditions: literature value adapted with fu,inc; ref [17, 18] of supplement; read-out: CYP3A4 Km → (E)-DE-Clom; cited from earlier work
CYP3A4 [10] = assay: Fraction metabolized via CYP3A4 calculated from observed AUClast (NM with vs without clarithromycin, Equation S1); type: in vivo, human; conditions: estimated from observed AUClast increase in NM with clarithromycin
Excerpt: Calculation of Fractions Metabolized
as §1, §2, §3, §4
Of note, a complete CYP3A4 inhibition through clarithromycin
was assumed, given the strong and mechanism-based inhibition through clarithromycin, which was
as §5
for the NM population without concomitant clarithromycin administration.

[11] = [34], [38] of supplement (ChemAxon Chemicalize)

Compound: CCNCCOc1ccc(/C(=C(/Cl)c2ccccc2)c2ccc(O)cc2)cc1 [(E)-4-OH-DE-Clom, (E)-4-hydroxy-N-desethylclomiphene]
Km (CYP2D6 [1]): 8.86 µM | IVSF, CYP2D6-mediated pathway → undef. (CYP2D6 [2]; AS=0, mean value assumed): 0 | IVSF, CYP2D6-mediated pathway → undef. (CYP2D6 [2]; AS=0.5, mean value assumed): 0.17 | IVSF, CYP2D6-mediated pathway → undef. (CYP2D6 [2]; AS=0.75, mean value assumed): 0.23 | IVSF, CYP2D6-mediated pathway → undef. (CYP2D6 [2]; AS=1, mean value assumed): 0.51 | IVSF, CYP2D6-mediated pathway → undef. (CYP2D6 [2]; AS=2 (NM, reference)): 1 | IVSF, CYP2D6-mediated pathway → undef. (CYP2D6 [2]; AS=3, mean value assumed): 1.41 | order of AUClast across CYP2D6 phenotypes [3]: AUCIM (AS = 0.5) > AUCNM > AUCUM > AUCPM | observed DGI AUClast effect ratio ([3]; IM (AS = 1) vs NM): ~ 0.8 | observed AUClast effect ratio in clarithromycin DDGI scenario vs control ([3]; PM): ~ 0.6 fold | IC50 (estrogen receptor): 0.9 nM | maximum plasma concentration (Cmax) in CYP2D6 PM compared with NM [4]: approximately ten-fold lower | Solubility (pH 6.5) ([5]; pH 6.5, ref [30], [34], [38] of supplement (ChemAxon Chemicalize)): 0.17 mg/ml | logP (lipophilicity), literature ([5]; ref [23, 25-27], [30, 31], [25, 34], [38] of supplement): 4.47 | pKa (base), literature [5, 11]: 9.65 | pKa (acid) ([5]; ref [34], [38] of supplement (ChemAxon Chemicalize)): 8.69

fraction metabolized (fm) via CYP2D6 (CYP2D6 [6]): ~90% | IVSF, CYP2D6-mediated pathway → (E)-DE-Clom (CYP2D6 [2]; AS=0, mean value assumed): 0 | IVSF, CYP2D6-mediated pathway → undef. (CYP2D6 [2]; AS=0, mean value assumed): 0 | IVSF, CYP2D6-mediated pathway → (E)-4-OH-Clom (CYP2D6 [2]; AS=0, relative to NM, from in vitro formation rates, supplement ref [17]): 0 | IVSF, CYP2D6-mediated pathway → (E)-DE-Clom (CYP2D6 [2]; AS=0.5, mean value assumed): 0.17 | IVSF, CYP2D6-mediated pathway → undef. (CYP2D6 [2]; AS=0.5, mean value assumed): 0.17 | IVSF, CYP2D6-mediated pathway → (E)-4-OH-Clom (CYP2D6 [2]; AS=0.5, relative to NM, from in vitro formation rates, supplement ref [17]): 0.19 | IVSF, CYP2D6-mediated pathway → (E)-DE-Clom (CYP2D6 [2]; AS=0.75, mean value assumed): 0.23 | IVSF, CYP2D6-mediated pathway → undef. (CYP2D6 [2]; AS=0.75, mean value assumed): 0.23 | IVSF, CYP2D6-mediated pathway → (E)-4-OH-Clom (CYP2D6 [2]; AS=0.75, relative to NM, from in vitro formation rates, supplement ref [17]): 0.27 | IVSF, CYP2D6-mediated pathway → (E)-DE-Clom (CYP2D6 [2]; AS=1, mean value assumed): 0.51 | IVSF, CYP2D6-mediated pathway → undef. (CYP2D6 [2]; AS=1, mean value assumed): 0.51 | IVSF, CYP2D6-mediated pathway → (E)-4-OH-Clom (CYP2D6 [2]; AS=1, relative to NM, from in vitro formation rates, supplement ref [17]): 0.57 | IVSF, CYP2D6-mediated pathway → (E)-4-OH-Clom (CYP2D6 [2]; AS=2 (NM, reference)): 1 | IVSF, CYP2D6-mediated pathway → (E)-DE-Clom (CYP2D6 [2]; AS=2 (NM, reference)): 1 | IVSF, CYP2D6-mediated pathway → undef. (CYP2D6 [2]; AS=2 (NM, reference)): 1 | IVSF, CYP2D6-mediated pathway → (E)-DE-Clom (CYP2D6 [2]; AS=3, mean value assumed): 1.41 | IVSF, CYP2D6-mediated pathway → undef. (CYP2D6 [2]; AS=3, mean value assumed): 1.41 | IVSF, CYP2D6-mediated pathway → (E)-4-OH-Clom (CYP2D6 [2]; AS=3, relative to NM, from in vitro formation rates, supplement ref [17]): 1.52 | order of AUClast across CYP2D6 phenotypes [3]: AUCPM > AUCIM > AUCNM > AUCUM | exposure increase in clarithromycin DD(G)I scenario vs control ([3]; NM): ~ 15% | AUClast increase with concomitant paroxetine ([3]; all phenotypes except PM): 2.5–12 fold | AUClast change during CYP3A4 inhibition ([3]; clarithromycin, all phenotypes): slight increase | bioavailability calculated from reported AUC0-24h after oral and intravenous application [8]: ~ 6.3% | fraction metabolized (fm) via CYP3A4 (CYP3A4 [10]): approximately 13%
Compound: CCN(CC)CCOc1ccc(/C(=C(/Cl)c2ccccc2)c2ccccc2)cc1 [(E)-Clom, (E)-clomiphene, reference compound]
intrinsic clearance of CYP2D6 pathway to (Z)-3-hydroxyclomiphene compared to formation of (E)-4-OH-Clom (CYP2D6 [7]; higher, ref [19] of supplement): 1.8 fold | Km (CYP2D6 [7]; ref [17, 18] of supplement, read-out: CYP2D6 Km → (E)-DE-Clom): 0.78 µM | Km (CYP2D6 [7]; ref [19] ((E)-Clom, (E)-4-OH-Clom), [17, 18] ((E)-DE-Clom) of supplement, read-out: CYP2D6 Km → undef.): 0.03 µM | Km (CYP2D6 [7]; ref [19] of supplement, read-out: CYP2D6 Km → (E)-4-OH-Clom): 0.13 µM | Km (CYP2B6): 0.6 µM | Km (CYP3A4 [9]): 0.78 µM | Solubility (pH 6.8) ([5]; pH 6.8, ref [24] of supplement): 0.0138 mg/ml | pKa (base), literature [5, 11]: 9.31
